The numbers were not newly measured in US20190046552A1, “COMPOSITIONS AND METHODS FOR THE TREATMENT OF HCV INFECTION” (priority 2015, published 2019), which cites them from elsewhere.

The subject of this data set is panel of cell lines. The conditions noted are these: read-out: 50% cytotoxic concentration (CC50), Coughlin et al. 2010; cited from earlier work.

Regarding `CO[C@H]1C(OP(=O)(OC[C@H]2O[C@@H](n3cnc4c(N)ncnc43)CC2O)SCOC(=O)OC(C)C)[C@@H](CO)O[C@H]1n1ccc(=O)[nH]c1=O` (stereo partly shown) [Formula (II)], the CC50 is above 1000 µM.
